Data reported in ChEMBL document CHEMBL5537119 (Eur J Med Chem, 2024).

Columns and labels:
[1] = test system: THP-1; experiment: Antiproliferative activity against human THP-1 cells assessed as reduction in cell viability at 100 uM incubated for 72 hrs by MTT assay relative to control; type: functional
[2] = test system: THP-1; experiment: cells; conditions: Homo sapiens, THP-1, 72 h
Description: Antiproliferative activity against human THP-1 cells assessed as inhibition of cell growth incubated for 72 hrs by MTT assay

[3] = Inhibition of Class I/IIb HDAC in human THP-1 cells preincubated for 18 hrs followed by substrate addition and measured after 3 hrs by fluorescence based microplate reader assay; type: cell-based
[4] = target: T1, Protein deacetylase HDAC6 (Homo sapiens, UniProt Q9UBN7); experiment: Inhibition of human recombinant HDAC6 using Boc-Lys(Ac)-AMC as substrate preincubated for 5 mins followed by substrate addition and measured after 90 mins by fluorescence based microplate reader analysis
T1 sequence (Q9UBN7 whole entry): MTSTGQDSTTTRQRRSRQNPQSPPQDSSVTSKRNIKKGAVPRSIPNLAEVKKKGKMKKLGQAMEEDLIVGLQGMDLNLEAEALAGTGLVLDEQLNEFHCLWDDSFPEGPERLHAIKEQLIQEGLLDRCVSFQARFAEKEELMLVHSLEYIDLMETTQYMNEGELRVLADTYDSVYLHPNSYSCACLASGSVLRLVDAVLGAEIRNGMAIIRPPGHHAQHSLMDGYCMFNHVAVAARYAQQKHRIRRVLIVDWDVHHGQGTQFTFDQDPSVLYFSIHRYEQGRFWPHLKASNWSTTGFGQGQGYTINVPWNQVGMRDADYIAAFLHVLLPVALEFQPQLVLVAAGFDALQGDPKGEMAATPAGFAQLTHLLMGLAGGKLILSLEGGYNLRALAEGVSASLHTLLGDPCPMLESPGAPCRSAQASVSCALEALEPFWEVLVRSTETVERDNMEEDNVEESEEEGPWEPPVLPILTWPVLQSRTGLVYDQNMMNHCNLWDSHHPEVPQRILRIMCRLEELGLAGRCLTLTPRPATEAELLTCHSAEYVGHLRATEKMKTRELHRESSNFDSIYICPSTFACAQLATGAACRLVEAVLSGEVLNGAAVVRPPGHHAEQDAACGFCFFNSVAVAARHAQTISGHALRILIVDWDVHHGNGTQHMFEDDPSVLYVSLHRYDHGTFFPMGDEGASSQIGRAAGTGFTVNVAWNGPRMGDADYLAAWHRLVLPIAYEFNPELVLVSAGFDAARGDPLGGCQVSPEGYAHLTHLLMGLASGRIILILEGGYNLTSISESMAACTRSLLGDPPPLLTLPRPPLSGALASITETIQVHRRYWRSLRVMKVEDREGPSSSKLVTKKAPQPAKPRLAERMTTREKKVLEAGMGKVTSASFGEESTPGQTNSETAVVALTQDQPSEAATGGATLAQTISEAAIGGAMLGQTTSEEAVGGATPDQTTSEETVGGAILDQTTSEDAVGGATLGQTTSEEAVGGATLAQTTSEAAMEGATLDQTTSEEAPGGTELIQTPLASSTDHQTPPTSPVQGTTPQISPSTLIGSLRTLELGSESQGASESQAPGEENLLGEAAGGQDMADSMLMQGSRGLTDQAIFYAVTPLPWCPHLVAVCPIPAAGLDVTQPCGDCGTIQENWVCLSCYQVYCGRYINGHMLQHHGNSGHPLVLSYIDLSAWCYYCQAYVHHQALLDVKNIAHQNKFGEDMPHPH

[5] = Inhibition of Class IIa/8 HDAC in human THP-1 cells preincubated for 18 hrs followed by substrate addition and measured after 3 hrs by fluorescence based microplate reader assay; type: cell-based
[6] = test system: THP-1; experiment: Inhibition of Class IIa/8 HDAC in human THP-1 cells at 100 uM preincubated for 18 hrs followed by substrate addition and measured after 3 hrs by fluorescence based microplate reader assay relative to control; type: cell-based; conditions: time 21.0 hrs, values are per cent of control
[7] = target: T2, Histone deacetylase 8 (Homo sapiens, UniProt Q9BY41); experiment: Inhibition of human recombinant HDAC8 using Boc-Lys-(Tfa)-AMC as substrate preincubated for 5 mins followed by substrate addition and measured after 90 mins by fluorescence based microplate reader analysis
T2 sequence (Q9BY41 whole entry): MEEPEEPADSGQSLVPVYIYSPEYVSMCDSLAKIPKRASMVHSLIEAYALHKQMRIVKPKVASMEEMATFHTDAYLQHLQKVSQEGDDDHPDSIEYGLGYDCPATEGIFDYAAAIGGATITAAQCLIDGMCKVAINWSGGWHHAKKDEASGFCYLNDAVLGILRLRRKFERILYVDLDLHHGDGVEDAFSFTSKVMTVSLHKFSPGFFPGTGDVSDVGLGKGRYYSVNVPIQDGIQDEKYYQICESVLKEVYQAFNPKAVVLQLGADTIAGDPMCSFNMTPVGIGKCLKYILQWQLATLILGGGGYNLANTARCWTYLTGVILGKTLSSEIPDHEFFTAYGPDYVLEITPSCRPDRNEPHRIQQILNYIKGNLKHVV

[8] = target: Histone deacetylase 2 (Homo sapiens, UniProt Q92769); experiment: Inhibition of human recombinant HDAC2 using Boc-Lys(Ac)-AMC as substrate preincubated for 5 mins followed by substrate addition and measured after 90 mins by fluorescence based microplate reader analysis
[9] = test system: THP-1; experiment: Inhibition of Class I/IIb HDAC in human THP-1 cells at 100 uM preincubated for 18 hrs followed by substrate addition and measured after 3 hrs by fluorescence based microplate reader assay relative to control; type: cell-based; conditions: time 21.0 hrs
[10] = target: Histone deacetylase 4 (Homo sapiens, UniProt P56524); experiment: Inhibition of human recombinant TEV-8His-tagged HDAC4 (648 to 1057 residues) expressed in Escherichia coli (DE3) Rosetta cells using Boc-Lys-(Tfa)-AMC as substrate preincubated for 5 mins followed by substrate addition and measured after 90 mins by fluorescence based microplate reader analysis
[11] = test system: CAL-27; experiment: Antiproliferative activity against human CAL-27 cells without HDAC4 expression assessed as inhibition of cell growth incubated for 72 hrs by MTT assay; type: functional, cell-based; conditions: CAL-27, 72 h
[12] = test system: CAL-27; experiment: Antiproliferative activity against human CAL-27 cells overexpressing HDAC4 assessed as inhibition of cell growth incubated for 72 hrs by MTT assay; type: functional, cell-based; conditions: CAL-27, 72 h

Histone deacetylase 4, sequence (P56524 whole entry, the tested form may be a part): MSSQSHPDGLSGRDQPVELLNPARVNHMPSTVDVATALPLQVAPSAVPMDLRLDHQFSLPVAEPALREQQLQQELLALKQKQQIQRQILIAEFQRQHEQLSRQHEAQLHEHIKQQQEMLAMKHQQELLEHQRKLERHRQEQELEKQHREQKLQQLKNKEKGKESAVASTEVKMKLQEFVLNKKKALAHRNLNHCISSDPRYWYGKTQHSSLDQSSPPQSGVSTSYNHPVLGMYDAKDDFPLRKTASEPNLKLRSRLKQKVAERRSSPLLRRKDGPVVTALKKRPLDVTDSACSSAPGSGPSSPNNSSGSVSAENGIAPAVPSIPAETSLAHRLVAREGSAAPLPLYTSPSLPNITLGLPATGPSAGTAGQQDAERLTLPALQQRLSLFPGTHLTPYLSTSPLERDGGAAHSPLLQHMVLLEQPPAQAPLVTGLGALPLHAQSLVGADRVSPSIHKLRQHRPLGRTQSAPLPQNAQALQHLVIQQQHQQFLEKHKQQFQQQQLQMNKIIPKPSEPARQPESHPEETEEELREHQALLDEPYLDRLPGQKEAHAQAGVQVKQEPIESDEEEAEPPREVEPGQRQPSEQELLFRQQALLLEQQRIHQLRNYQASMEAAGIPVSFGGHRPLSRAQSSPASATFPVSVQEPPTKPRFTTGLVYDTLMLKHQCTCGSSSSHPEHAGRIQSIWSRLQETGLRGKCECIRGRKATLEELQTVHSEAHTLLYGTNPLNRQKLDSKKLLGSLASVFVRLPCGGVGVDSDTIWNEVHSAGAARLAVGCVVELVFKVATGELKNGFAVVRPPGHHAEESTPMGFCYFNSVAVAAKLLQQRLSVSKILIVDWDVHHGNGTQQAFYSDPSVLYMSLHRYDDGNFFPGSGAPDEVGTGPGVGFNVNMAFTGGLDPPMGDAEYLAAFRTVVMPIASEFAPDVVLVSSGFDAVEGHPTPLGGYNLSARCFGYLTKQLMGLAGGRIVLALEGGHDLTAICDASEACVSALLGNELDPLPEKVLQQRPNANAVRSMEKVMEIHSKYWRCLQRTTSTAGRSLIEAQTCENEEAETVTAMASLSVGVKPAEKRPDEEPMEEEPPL
Histone deacetylase 2, sequence (Q92769 whole entry): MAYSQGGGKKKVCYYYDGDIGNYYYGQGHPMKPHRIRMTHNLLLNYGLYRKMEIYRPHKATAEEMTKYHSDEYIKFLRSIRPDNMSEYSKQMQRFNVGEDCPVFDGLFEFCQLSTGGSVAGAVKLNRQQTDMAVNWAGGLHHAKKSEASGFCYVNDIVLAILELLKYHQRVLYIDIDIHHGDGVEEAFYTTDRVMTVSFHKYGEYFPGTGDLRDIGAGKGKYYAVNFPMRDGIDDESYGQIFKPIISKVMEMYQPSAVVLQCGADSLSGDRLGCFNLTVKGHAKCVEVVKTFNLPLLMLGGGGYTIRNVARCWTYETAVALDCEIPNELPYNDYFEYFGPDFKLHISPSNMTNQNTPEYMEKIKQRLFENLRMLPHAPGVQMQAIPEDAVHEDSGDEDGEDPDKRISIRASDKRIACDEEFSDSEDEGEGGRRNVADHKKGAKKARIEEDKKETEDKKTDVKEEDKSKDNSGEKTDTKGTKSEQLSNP

In the case of `CCN(CC)CCCCNC(=O)c1ccc(-c2noc(C(F)(F)F)n2)cc1`, the Activity [1] is reported as 47%, the IC50 [2] is reported as roughly 100 µM and the IC50 [3] is reported as 13.7 µM. The IC50 [4] was 5.61 µM, the IC50 [5] was 1.17 µM and the residual activity [6] was 102%. It also gave an IC50 [7] of 6.72 µM, an IC50 [8] of 25.4 µM and an inhibition [9] of 73%. The IC50 [10] was 0.139 µM.

Compound `O=C(NO)C(c1ccc(-c2ncc(C(F)(F)F)cn2)cc1)c1ccccc1F` (stereo not drawn) has an IC50 [11] of 9.69 µM and an IC50 [12] of 12.8 µM.

`O=C(CCCCCCC(=O)Nc1ccccc1)NO` [VORINOSTAT] gave an Activity [1] of 97%.

Work on `CN(C)c1ccc(CNC(=O)c2ccc(-c3noc(C(F)(F)F)n3)cc2)cc1` yielded an Activity [1] of 49%, an IC50 [2] of roughly 100 µM and an IC50 [3] greater than 100 µM. For the same compound, the IC50 [4] was greater than 100 µM, the IC50 [5] was 5.51 µM and the residual activity [6] was 103%. The IC50 [7] was greater than 100 µM, the IC50 [8] was greater than 100 µM and the inhibition [9] was 25%. The IC50 [10] was 0.94 µM.

`CN(C(=O)c1ccc(-c2noc(C(F)(F)F)n2)cc1)c1ccccc1` showed an Activity [1] of 33%, an IC50 [2] greater than 100 µM and an IC50 [3] greater than 100 µM. It also gave an IC50 [4] of 19.6 µM, an IC50 [5] of 6.39 µM and a residual activity [6] of 118%. It also gave an IC50 [7] of 71.8 µM, an IC50 [8] greater than 100 µM and an inhibition [9] of 31%. For the same compound, the IC50 [10] was 0.75 µM.

In the case of `CCN(CC)CCN(C)C(=O)c1ccc(-c2noc(C(F)(F)F)n2)cc1`, the Activity [1] is reported as 31%, the IC50 [2] is reported as greater than 100 µM and the IC50 [3] is reported as 14 µM. It also gave an IC50 [4] of 16.9 µM, an IC50 [5] of 1.27 µM and a residual activity [6] of 98%. It also gave an IC50 [7] of 10.8 µM, an IC50 [8] of 34.8 µM and an inhibition [9] of 65%. It also gave an IC50 [10] of 0.198 µM.

In the case of `CN1CCN(C(=O)c2ccc(-c3noc(C(F)(F)F)n3)cc2)CC1`, the Activity [1] is reported as 39%, the IC50 [2] is reported as greater than 100 µM and the IC50 [3] is reported as greater than 100 µM. For the same compound, the IC50 [4] was 55.4 µM, the IC50 [5] was 5.51 µM and the residual activity [6] was 103%. For the same compound, the IC50 [7] was 16.1 µM, the IC50 [8] was 80 µM and the inhibition [9] was 23%. It also gave an IC50 [10] of 1.18 µM.
